Patent US12582604B2, “Stable solid dispersion of a B-RAF kinase dimer inhibitor, methods of preparation, and uses therefor” (BEIGENE, LTD., priority 2019, dated 2026)
Converted amounts (≈) assume the structure as drawn. “Also recorded” adds a separate entry of the source. Values belong to the molecule of their own block, whether it stands above or below them.

Assays:
[1] = Long-term and accelerated stability studies (impurities, optical purity, XRPD, water content); format: physicochemical; conditions: for Total impurities T0: initial
[2] = Pharmacokinetic comparison of Forms A-H in rats (Example 14); format: in vivo
Excerpt: Pharmacokinetic Comparison of Form a, B, C, D, E, F, G and H in Rats
(§1) Powder of Form A with particle sizes of D90=62.4 μm after micronization. The material content (purity) was not less than 98.0%.
Powder of Form B with particle sizes of D90=69.9 μm, D10=3.5 um, […] after micronization. The material content (purity) was not less than 98.0%.
Powders of Forms C, D, E, F, G and H with particle sizes of D90<600 μm after micronization. The material content (purity) was not less than 98.0%.
Rats, male and female, were used in this study.
An appropriate amount of each substance was weighted and was dispersed in 0.5% sodium carboxymethyl cellulose. A suspension was prepared at the desired concentration of Compound 1 for each substance. All the doses and concentrations of Compound 1 were calculated with freebase in this study.
(§2) The dosing solutions were freshly prepared prior to dose administration. The actual body weights and actual volume injected were recorded accordingly. The rats were fasted overnight and were allowed to intake food four hours after dosing. Each suspension was administrated orally to rats at a dose ranged from 0.5 to 5 mg/kg. Blood samples (˜1.0 mL) were collected at pre-dose and at different times up to 36 hours post-dosing via cephalic vein plexus. Whole blood was processed by centrifugation and plasma samples were collected and kept at freezer prior to analysis. Plasma samples were processed by protein precipitation. Concentrations of Compound 1 in the plasma samples were determined using a validated liquid chromatography-tandem mass spectrometry (LC-MS/MS) method. The plasma concentration-time data were analyzed using a non-compartmental model using Pharsight WinNonlin.

[3] = Solubility measurement (shaking 200 rpm at 25° C., HPLC); format: physicochemical
[4] = Hygroscopicity by dynamic vapor sorption (DVS); format: physicochemical; conditions: for Hygroscopicity (in words): DVS, 80% RH
[5] = Pharmacokinetic comparison of Forms A-H in rats (Example 14); format: in vivo; conditions: rat, plasma
[6] = tested on: RAF family of serine/threonine kinases; conditions: especially against BRAF/CRAF dimers; cited from earlier work
[7] = Pharmacokinetic comparison of Form A and Form F in dogs (Example 15); format: in vivo, Beagle dogs; conditions: for half-life: read-out: T½ (converted)
Method: Pharmacokinetic Comparison of Form A and Form F in Dogs
as §1
Powder of Form F with particle sizes of D90<200 μm after micronization. The material content (purity) was not less than 98.0%.
Beagle dogs, male and female, were used in this study.
An appropriate amount of each substance was weighed and was disperse in 0.5% sodium carboxymethyl cellulose. A suspension was prepared at the desired concentration of Compound 1 for each substance. All the doses and concentrations of Compound 1 were calculated with freebase in this study.
as §2, with “dogs” for “rats”

[8] = Long-term and accelerated stability studies (impurities, optical purity, XRPD, water content); format: physicochemical
Method: Chiral purity and polymorph results had no changes when stored at 25° C./60% RH for up to 24 months.

[9] = 25° C./60% RH up to 24 months and 40° C./75% RH up to 6 months
[10] = both sexes, beagle, dog, plasma, 0.5 mg/kg, 0.5 mpk IV
[11] = both sexes, beagle, dog, plasma, 5 mg/kg, 5 mpk PO
[12] = both sexes, iv, 1 mg/kg, 1 mpk IV

Time at which solid form is still stable by XRPD (no crystalline peaks) ([1]; 40° C./75% RH): ≥ 14 days
AUC(0-t) ([2]; 5 mpk PO, 5 mg/kg): 13134 ng·h/mL
T1/2 ([2]; 5 mpk PO, 5 mg/kg): 2.47 h
Cmax and AUC0-inf compared with the amorphous solid dispersions (in words) ([2]; PO): lower
Cmax, AUC0-inf and F(%) compared to crystalline Form A (in words) ([2]; PO): higher
SMILES: O=C1CCc2c(Oc3ccc4c(c3)[C@H]3[C@H](NC(=O)Nc5cc(F)c(F)cc5F)[C@H]3O4)ccnc2N1 [Form B, 1-((1S,1aS,6bS)-5-((7-oxo-5,6,7,8-tetrahydro-1,8-naphthyridin-4-yl)oxy)-1a,6b-dihydro-1H-cyclopropa[b]benzofuran-1-yl)-3-(2,4,5-trifluorophenyl)urea]

Solubility (in words) ([3]; water and other common recrystallization solvents): very low solubilities
SMILES: O=C1CCc2c(Oc3ccc4c(c3)[C@H]3[C@H](NC(=O)N[C@@H]5[C@H]6Oc7ccc(Oc8ccnc9c8CCC(=O)N9)cc7[C@@H]56)[C@H]3O4)ccnc2N1 [Impurity-1]

Solubility (in words) ([3]; crystalline or neat amorphous form, water, 0.1 HCl, buffer solutions of different pH): poor solubility
Weight gain (water gain) by DVS ([4]; 80% relative humidity): 4.96%
Hygroscopicity (in words) [4]: moderately hygroscopic
Optical purity change ([1]; crystalline form, 25° C./60% RH up to 12 months and 40° C./75% RH up to 6 months): no optical purity changes
bioavailability ([5]; po, 5 mpk, crystalline form, preliminary DMPK studies): ~20%
SMILES: O=C1CCc2c(Oc3ccc4c(c3)[C@H]3[C@H](NC(=O)Nc5cc(F)c(F)cc5F)[C@H]3O4)ccnc2N1 [Compound 1, 1-((1S,1aS,6bS)-5-((7-oxo-5,6,7,8-tetrahydro-1,8-naphthyridin-4-yl)oxy)-1a,6b-dihydro-1H-cyclopropa[b]benzofuran-1-yl)-3-(2,4,5-trifluorophenyl)urea]
Chemical purity change ([1]; crystalline form, 25° C./60% RH up to 12 months): does not show any significant chemical purity change
Inhibitory activity (in words) [6]: potent inhibitory activity

solubility ([3]; 0.1N HCl, simulated gastric fluid): 20 µg/mL (≈ 41.5 µM)
solubility ([3]; 5% HTAB, aqueous with cosolvent or surfactant or cyclodextrin): 960 µg/mL (≈ 1990 µM)
solubility ([3]; 5% Pluronic F68, aqueous with cosolvent or surfactant or cyclodextrin): < 0.1 µg/mL
solubility ([3]; 5% SLS, aqueous with cosolvent or surfactant or cyclodextrin): 1000 µg/mL (≈ 2070 µM)
solubility ([3]; 20% hydroxypropyl-β-cyclodextrin (HP-β-CD), aqueous with cosolvent or surfactant or cyclodextrin): 550 µg/mL (≈ 1140 µM)
solubility ([3]; 20% sulfobutyl ether-β-cyclodextrin (SBE-β-CD), aqueous with cosolvent or surfactant or cyclodextrin): 550 µg/mL (≈ 1140 µM)
solubility at 2 h ([3]; DMA, organic solvent or mixture): > 372000 µg/mL
solubility at 2 h ([3]; DMSO, organic solvent or mixture): > 95400 µg/mL
solubility ([3]; n-heptane, organic solvent or mixture): < 0.1 µg/mL
solubility ([3]; pH 1.2 buffer solution, pH 1.2, simulated gastric fluid): 15 µg/mL (≈ 31.1 µM)
solubility ([3]; pH 4.5 buffer, pH 4.5, aqueous buffer): < 0.1 µg/mL
solubility ([3]; pH 6.8 buffer, pH 6.8, aqueous buffer): < 0.1 µg/mL
solubility ([3]; pH 7.4 buffer solution, pH 7.4, aqueous buffer): < 0.1 µg/mL
solubility ([3]; water): < 0.1 µg/mL
Hygroscopicity (in words) [4]: moderately hygroscopic
Crystalline form after DVS ([4]; after dynamic vapor sorption): changed to the Crystalline Form A*
Storage time without obvious decomposition [1]: over 12 months
Total impurities T0 ([1]; 25° C./60% RH study): 1.0%
Chemical purity change [1, 9]: no significant chemical purity change
Total impurities T24 ([1]; 25° C./60% RH, 24 months): 1.0%
Time at which solid form is still stable by XRPD ([1]; 40° C./75% RH): ≥ 6 months
Total impurities T0 ([1]; 40° C./75% RH study): 1.0%
Total impurities T6 ([1]; 40° C./75% RH, 6 months): 1.0%
F ([7]; 0.5 mpk IV (reference)): 100%
F ([7]; 5 mpk PO): 34%
AUC(0-t) [7, 10]: 6870 ng·h/mL
clearance [7, 10]: 1.22 mL/min/kg
half-life [7, 10]: 11 h
Vd ([7]; both sexes, beagle, dog, plasma, 0.5 mg/kg, 0.5 mpk IV, read-out: Vdss): 0.97 L/kg
AUC(0-t) [7, 11]: 23400 ng·h/mL
Cmax [7, 11]: 1120 ng/mL
half-life [7, 11]: 11 h
Time at which solid form is still stable by XRPD ([8]; 25° C./60% RH): ≥ 6 months
Optical purity change [8, 9]: no optical purity changes
clearance ([5]; both sexes, 1 mg/kg, 1 mpk IV): 3.15 mL/min/kg
Vd ([5]; both sexes, 1 mg/kg, 1 mpk IV, read-out: Vdss): 1.15 L/kg
AUC(0-t) [5, 12]: 5330 ng·h/mL
half-life [5, 12]: 4.2 h
F ([2]; 1 mpk IV (reference)): 100%
AUC(0-t) ([2]; 5 mpk PO, 5 mg/kg): 5716 ng·h/mL
half-life ([2]; both sexes, rat, plasma, po, 5 mg/kg, 5 mpk PO): 2.94 h
SMILES: O=C1CCc2c(Oc3ccc4c(c3)[C@H]3[C@H](NC(=O)Nc5cc(F)c(F)cc5F)[C@H]3O4)ccnc2N1 [Form A, 1-((1S,1aS,6bS)-5-((7-oxo-5,6,7,8-tetrahydro-1,8-naphthyridin-4-yl)oxy)-1a,6b-dihydro-1H-cyclopropa[b]benzofuran-1-yl)-3-(2,4,5-trifluorophenyl)urea]
Crystalline form change by XRPD ([1]; 25° C./60% RH, 12 months): changed to the crystalline form; also recorded: from Form A to Form A*
